In patent publication US20230150944A1, “PESTICIDALLY ACTIVE HETEROCYCLIC DERIVATIVES WITH SULFOXIMINE CONTAINING SUBSTITUENTS” (SYNGENTA CROP PROTECTION AG, priority 2018, published 2023):

Experiments:
Type in all cases: in vivo
[1] = test system: Myzus persicae (Green Peach Aphid); assay: Example B4: Activity on Myzus persicae, sunflower leaf disc spray; settings: foliar, 144 h, application rate of 200 ppm, mixed-age aphids on sprayed sunflower leaf discs, 6 days after infestation
Method: Example B4: Activity on Myzus persicae (Green Peach Aphid)
Sunflower leaf discs were placed onto agar in a 24-well microtiter plate and sprayed with aqueous test solutions prepared from 10′000 ppm DMSO stock solutions. After drying, the leaf discs were infested with an aphid population of mixed ages. The samples were assessed for mortality 6 days after infestation.

[2] = test system: Tetranychus urticae (Two-Spotted Spider Mite); assay: Example B10: Activity on Tetranychus urticae, bean leaf disc spray; settings: foliar, 192 h
Method: Example B10: Activity on Tetranychus urticae (Two-Spotted Spider Mite)
Bean leaf discs on agar in 24-well microtiter plates were sprayed with aqueous test solutions prepared from 10′000 ppm DMSO stock solutions. After drying the leaf discs were infested with a mite population of mixed ages. The samples were assessed for mortality on mixed population (mobile stages) 8 days after infestation.

[3] = test system: Plutella xylostella (Diamond Back Moth); assay: Example B6: Activity on Plutella xylostella, artificial diet, L2 larvae; settings: 120 h, application rate of 200 ppm, 5 days after infestation, read-out: effect in at least one of the two categories (mortality or growth inhibition)
Method: Example B6: Activity on Plutella xylostella (Diamond Back Moth)
24-well microtiter plates with artificial diet were treated with aqueous test solutions prepared from 10′000 ppm DMSO stock solutions by pipetting. After drying, the plates were infested with L2 larvae (10 to 15 per well). The samples were assessed for mortality and growth inhibition in comparison to untreated samples 5 days after infestation.

[4] = test system: Euschistus heros (Neotropical Brown Stink Bug); assay: Example B3: Activity on Euschistus heros, soybean leaf spray; settings: 120 h, application rate of 200 ppm, N2 nymphs on soybean leaves, 5 days after infestation, read-out: effect in at least one of the two categories (mortality or growth inhibition)
Method: Example B3: Activity on Euschistus heros (Neotropical Brown Stink Bug)
Soybean leaves on agar in 24-well microtiter plates were sprayed with aqueous test solutions prepared from 10′000 ppm DMSO stock solutions. After drying the leaves were infested with N2 nymphs. The samples were assessed for mortality and growth inhibition in comparison to untreated samples 5 days after infestation.

[5] = test system: Myzus persicae (Green Peach Aphid); assay: Example B5: Activity on Myzus persicae, pea seedling roots in test solution; settings: 144 h, test rate of 24 ppm, roots of infested pea seedlings placed into test solution, 6 days
Method: Example B5: Activity on Myzus persicae (Green Peach Aphid)
Roots of pea seedlings infested with an aphid population of mixed ages were placed directly into aqueous test solutions prepared from 10′000 DMSO stock solutions. The samples were assessed for mortality 6 days after placing seedlings into test solutions.

[6] = test system: Spodoptera littoralis (Egyptian Cotton Leaf Worm); assay: Example B7: Activity on Spodoptera littoralis, cotton leaf disc spray; settings: foliar, 72 h, application rate of 200 ppm, L1 larvae on cotton leaf discs, 3 days after infestation, read-out: control (mortality, anti-feeding effect or growth inhibition)
Method: Example B7: Activity on Spodoptera littoralis (Egyptian Cotton Leaf Worm)
Cotton leaf discs were placed onto agar in 24-well microtiter plates and sprayed with aqueous test solutions prepared from 10′000 ppm DMSO stock solutions. After drying the leaf discs were infested with five L1 larvae. The samples were assessed for mortality, anti-feeding effect, and growth inhibition in comparison to untreated samples 3 days after infestation. Control of Spodoptera littoralis by a test sample is given when at least one of the categories mortality, anti-feedant effect, and growth inhibition is higher than the untreated sample.

[7] = test system: Bemisia tabaci (Cotton White Fly); assay: Example B1: Activity on Bemisia tabaci, cotton leaf disc spray; settings: foliar, 144 h, application rate of 200 ppm, adult white flies on cotton leaf discs, 6 days after incubation
Method: Example B1: Activity on Bemisia tabaci (Cotton White Fly)
Cotton leaf discs were placed on agar in 24-well microtiter plates and sprayed with aqueous test solutions prepared from 10′000 ppm DMSO stock solutions. After drying the leaf discs were infested with adult white flies. The samples were checked for mortality 6 days after incubation.

[8] = test system: Diabrotica balteata (Corn Root Worm); assay: Example B2: Activity on Diabrotica balteata, maize sprout spray; settings: 96 h, application rate of 200 ppm, L2 larvae on maize sprouts, 4 days after infestation, read-out: effect in at least one of the two categories (mortality or growth inhibition)
Method: Example B2: Activity on Diabrotica balteata (Corn Root Worm)
Maize sprouts placed onto an agar layer in 24-well microtiter plates were treated with aqueous test solutions prepared from 10′000 ppm DMSO stock solutions by spraying. After drying, the plates were infested with L2 larvae (6 to 10 per well). The samples were assessed for mortality and growth inhibition in comparison to untreated samples 4 days after infestation.

[9] = test system: Plutella xylostella (Diamond Back Moth); assay: Example B11: Activity on Plutella xylostella, artificial diet, eggs; settings: 192 h, application rate of 200 ppm, 8 days after infestation, read-out: effect in at least one of the two categories (mortality or growth inhibition)
Method: Example B11: Activity on Plutella xylostella (Diamond Back Moth)
24-well microtiter plates with artificial diet were treated with aqueous test solutions prepared from 10′000 ppm DMSO stock solutions by pipetting. After drying, Plutella eggs were pipetted through a plastic stencil onto a gel blotting paper and the plate was closed with it. The samples were assessed for mortality and growth inhibition in comparison to untreated samples 8 days after infestation.

CCS(=N)(=O)c1cc(C2CC2)cnc1-c1nc2cc(S(=O)(=O)C(F)(F)F)ncc2n1C (stereo not drawn) [Example P3, [5-cyclopropyl-2-[3-methyl-6-(trifluoromethylsulfonyl)imidazo[4,5-c]pyridin-2-yl]-3-pyridyl]-ethyl-imino-oxo-λ^6-sulfane]
≥ 80%: mortality at 200 ppm [1] | mortality at 200 ppm [2] | percent effect (mortality or growth inhibition) at 200 ppm [3] | percent effect (mortality or growth inhibition) at 200 ppm [4] | mortality at 24 ppm [5] | percent control (mortality, anti-feedant effect or growth inhibition) at 200 ppm [6] | mortality at 200 ppm [7] | percent effect (mortality or growth inhibition) at 200 ppm [8]

CCS(=N)(=O)c1cc(C2CC2)cnc1-c1cn2ncc(C(F)(F)F)cc2n1 (stereo not drawn) [Example P16, [5-cyclopropyl-2-[7-(trifluoromethyl)imidazo[1,2-b]pyridazin-2-yl]-3-pyridyl]-ethyl-imino-oxo-λ^6-sulfane]
≥ 80%: mortality at 200 ppm [1] | percent effect (mortality or growth inhibition) at 200 ppm [9] | mortality at 24 ppm [5] | percent control (mortality, anti-feedant effect or growth inhibition) at 200 ppm [6] | percent effect (mortality or growth inhibition) at 200 ppm [8]

CCS(=N)(=O)c1cc(C2(C#N)CC2)cnc1-n1cc2cnc(C(F)(F)F)cc2n1 (stereo not drawn) [Example P17, 1-[5-(ethylsulfonimidoyl)-6-[6-(trifluoromethyl)pyrazolo[4,3-c]pyridin-2-yl]-3-pyridyl] cyclopropanecarbonitrile]
≥ 80%: mortality at 200 ppm [1] | percent effect (mortality or growth inhibition) at 200 ppm [9] | mortality at 24 ppm [5]

CCS(=N)(=O)c1cc(C2CC2)cnc1-c1nc2cc(SC(F)(F)F)ccc2o1 (stereo not drawn) [Example P18, [5-cyclopropyl-2-[5-(trifluoromethylsulfanyl)-1,3-benzoxazol-2-yl]-3-pyridyl]-ethyl-imino-oxo-λ^6-sulfane]
≥ 80%: percent effect (mortality or growth inhibition) at 200 ppm [9]

CCS(=N)(=O)c1cc(C2CC2)cnc1-c1nc2cc(S(=O)(=O)C(F)(F)F)ccc2o1 (stereo not drawn) [Example P19, [5-cyclopropyl-2-[5-(trifluoromethylsulfonyl)-l ,3-benzoxazol-2-yl]-3-pyridyl]-ethyl-imino-oxo-λ^6-sulfane]
≥ 80%: percent effect (mortality or growth inhibition) at 200 ppm [9]
